Laboratory results reported in patent publication US20250145665A1, “MACROCYCLIC PEPTIDES USEFUL AS MODULATORS OF TNF ALPHA” (Bristol-Myers Squibb Company, priority 2023, published 2025).
Read-outs that look alike come from different tables or passages of the source. Starred links: 1 amine or outer side, 2 acyl side, 3 side chain; linkers in the order of their positions; H or OH if unused. Positions of bridges follow the written chain, without caps; N, C: chain ends. Non-standard residues stand in square brackets, D forms with d. Residues, ends and D or L forms follow the SMILES beside them. *: point of attachment. Bip(4'-NHCO-C6H4-3-CH2COOH) = N[C@@H](Cc1ccc(-c2ccc(NC(=O)c3cccc(CC(=O)O)c3)cc2)cc1)C(=O)O; Bip(4'-NHCO-C6H4-4-CH2COOH) = N[C@@H](Cc1ccc(-c2ccc(NC(=O)c3ccc(CC(=O)O)cc3)cc2)cc1)C(=O)O; Bip(4'-NHBz) = N[C@@H](Cc1ccc(-c2ccc(NC(=O)c3ccccc3)cc2)cc1)C(=O)O; Bip(4'-NH) = O=C([C@H](Cc1ccc(-c2ccc(N[*:3])cc2)cc1)N[*:1])[*:2]; dArg(ω-Bn(3-CH2OH)) = N=C(NCCC[C@@H](N)C(=O)O)NCc1cccc(CO)c1; Bip(4'-COOH) = N[C@@H](Cc1ccc(-c2ccc(C(=O)O)cc2)cc1)C(=O)O; X7 = N=C(NCCC[C@@H](N[*:1])C(=O)[*:2])NCc1ccc2occc2c1; Ala(morpholin-4-yl) = N[C@@H](CN1CCOCC1)C(=O)O; Benzoyl(3-OCH2COOH) = O=C(O)COc1cccc(C(=O)*)c1; Benzoyl(4-OCH2COOH) = O=C(O)COc1ccc(C(=O)*)cc1; Bip = N[C@@H](Cc1ccc(-c2ccccc2)cc1)C(=O)O; 2Pal = N[C@@H](Cc1ccccn1)C(=O)O; Cha = N[C@@H](CC1CCCCC1)C(=O)O; Chg = N[C@H](C(=O)O)C1CCCCC1; Tle = CC(C)(C)[C@H](N)C(=O)O; Sar = CNCC(=O)O

Target: TNFα (Homo sapiens, UniProt P01375)
Sequence (P01375 77-233 limits assumed): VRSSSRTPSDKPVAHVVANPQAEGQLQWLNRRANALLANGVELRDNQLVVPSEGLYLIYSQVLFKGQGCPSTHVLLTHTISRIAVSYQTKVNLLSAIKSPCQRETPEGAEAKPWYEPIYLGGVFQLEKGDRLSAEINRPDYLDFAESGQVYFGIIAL
Test: TNF-Induced HEK-Blue Assay
Type: cell-based
[1] = HEK-Blue-CD40L cells, NF-kB-driven secreted alkaline phosphatase reporter, TNFα 0.5 ng/ml, 18 h, read-out: TNF induced HEK-Blue assay IC50 value

Row | Compound | IC50 [1] | IC50
1 | CC[C@H](C)[C@@H]1NC(=O)[C@@H](CCCNC(=N)N)NC(=O)[C@H](CC(=O)O)NC(=O)[C@H](Cc2cnc[nH]2)NC(=O)CN(C)C(=O)[C@H](Cc2ccc(-c3ccc(NC(=O)c4ccc(CC(=O)O)cc4)cc3)cc2)NC(=O)[C@H](Cc2ccc(-c3ccccc3)cc2)NC(=O)[C@H](CN2CCOCC2)NC(=O)CSC[C@@H](C(=O)NCC(N)=O)NC(=O)[C@H](CC(C)C)NC(=O)[C@H](Cc2cnc[nH]2)NC(=O)[C@H](C(C)C)NC(=O)[C@@H]2CCCN2C1=O [Example 484] ({CH2CO}-[Ala(morpholin-4-yl)][Bip][Bip(4'-NHCO-C6H4-4-CH2COOH)][Sar]HD[dR]IPVHLCG-NH2; thioether N-13) | < 50 nM | 
2 | CC[C@H](C)[C@@H]1NC(=O)[C@@H](CCCNC(=N)N)NC(=O)[C@H](CC(=O)O)NC(=O)[C@H](Cc2cnc[nH]2)NC(=O)CN(C)C(=O)[C@H](Cc2ccc(-c3ccc(NC(=O)c4ccc(CC(=O)O)cc4)cc3)cc2)NC(=O)[C@H](Cc2ccc(-c3ccccc3)cc2)NC(=O)[C@H](C(C)(C)C)NC(=O)CSC[C@@H](C(=O)NCC(N)=O)NC(=O)[C@H](CC(C)C)NC(=O)[C@H](Cc2cnc[nH]2)NC(=O)[C@H](C(C)C)NC(=O)[C@@H]2CCCN2C1=O [Example 485] ({CH2CO}-[Tle][Bip][Bip(4'-NHCO-C6H4-4-CH2COOH)][Sar]HD[dR]IPVHLCG-NH2; thioether N-13) | < 50 nM | 
3 | CC[C@H](C)[C@@H]1NC(=O)[C@@H](CCCNC(=N)N)NC(=O)[C@H](CC(=O)O)NC(=O)[C@H](Cc2cnc[nH]2)NC(=O)CN(C)C(=O)[C@H](Cc2ccc(-c3ccc(NC(=O)c4ccc(CC(=O)O)cc4)cc3)cc2)NC(=O)[C@H](Cc2ccc(-c3ccc(C(=O)O)cc3)cc2)NC(=O)[C@H](C(C)(C)C)NC(=O)CSC[C@@H](C(=O)NCC(N)=O)NC(=O)[C@H](CC(C)C)NC(=O)[C@H](Cc2cnc[nH]2)NC(=O)[C@H](C(C)C)NC(=O)[C@@H]2CCCN2C1=O [Example 486] ({CH2CO}-[Tle][Bip(4'-COOH)][Bip(4'-NHCO-C6H4-4-CH2COOH)][Sar]HD[dR]IPVHLCG-NH2; thioether N-13) | < 50 nM | 
4 | CC[C@H](C)[C@@H]1NC(=O)[C@@H](CCCNC(=N)N)NC(=O)[C@H](CC(=O)O)NC(=O)[C@H](Cc2cnc[nH]2)NC(=O)CN(C)C(=O)[C@H](Cc2ccc(-c3ccc(NC(=O)c4ccc(CC(=O)O)cc4)cc3)cc2)NC(=O)[C@H](Cc2ccc(-c3ccc(C(=O)O)cc3)cc2)NC(=O)[C@H](CN2CCOCC2)NC(=O)CSC[C@@H](C(=O)NCC(N)=O)NC(=O)[C@H](CC(C)C)NC(=O)[C@H](Cc2cnc[nH]2)NC(=O)[C@H](C(C)C)NC(=O)[C@@H]2CCCN2C1=O [Example 487] ({CH2CO}-[Ala(morpholin-4-yl)][Bip(4'-COOH)][Bip(4'-NHCO-C6H4-4-CH2COOH)][Sar]HD[dR]IPVHLCG-NH2; thioether N-13) | < 50 nM | 
5 | CC[C@H](C)[C@@H]1NC(=O)[C@@H](CCCNC(=N)N)NC(=O)[C@H](CC(=O)O)NC(=O)[C@H](Cc2cnc[nH]2)NC(=O)CN(C)C(=O)[C@H](Cc2ccc(-c3ccc(NC(=O)c4ccc(CC(=O)O)cc4)cc3)cc2)NC(=O)[C@H](Cc2ccc(-c3ccc(C(=O)O)cc3)cc2)NC(=O)[C@H](CC2CCCCC2)NC(=O)CSC[C@@H](C(=O)NCC(N)=O)NC(=O)[C@H](CC(C)C)NC(=O)[C@H](Cc2cnc[nH]2)NC(=O)[C@H](C(C)C)NC(=O)[C@@H]2CCCN2C1=O [Example 488] ({CH2CO}-[Cha][Bip(4'-COOH)][Bip(4'-NHCO-C6H4-4-CH2COOH)][Sar]HD[dR]IPVHLCG-NH2; thioether N-13) | < 50 nM | 
6 | CC(C)C[C@@H]1NC(=O)[C@H](Cc2cnc[nH]2)NC(=O)[C@H](C(C)C)NC(=O)[C@@H]2CCCN2C(=O)[C@H](C(C)C)NC(=O)[C@@H](CCCNC(=N)N)NC(=O)[C@H](CC(=O)O)NC(=O)[C@H](Cc2cnc[nH]2)NC(=O)CN(C)C(=O)[C@H](Cc2ccc(-c3ccc(NC(=O)c4ccc(OCC(=O)O)cc4)cc3)cc2)NC(=O)[C@H](Cc2ccc(-c3ccccc3)cc2)NC(=O)[C@H](CC2CCCCC2)NC(=O)CSC[C@@H](C(=O)NCC(N)=O)NC1=O [Example 489] ({CH2CO}-[Cha][Bip][Bip(4'-NH)](Benzoyl(4-OCH2COOH))[Sar]HD[dR]VPVHLCG-NH2; thioether N-13) | < 50 nM | 
7 | CC[C@H](C)[C@@H]1NC(=O)[C@@H](CCCNC(=N)N)NC(=O)[C@H](CC(=O)O)NC(=O)[C@H](Cc2cnc[nH]2)NC(=O)CN(C)C(=O)[C@H](Cc2ccc(-c3ccc(NC(=O)c4ccccc4)cc3)cc2)NC(=O)[C@H](Cc2ccc(-c3ccccc3)cc2)NC(=O)[C@H](CC2CCCCC2)NC(=O)CSC[C@@H](C(=O)NCC(N)=O)NC(=O)[C@H](CC(C)C)NC(=O)[C@H](Cc2cnc[nH]2)NC(=O)[C@H](C2CCCCC2)NC(=O)[C@@H]2CCCN2C1=O [Example 490] ({CH2CO}-[Cha][Bip][Bip(4'-NHBz)][Sar]HD[dR]IP[Chg]HLCG-NH2; thioether N-13) |  | 50 to 200 nM
8 | CC(C)C[C@@H]1NC(=O)[C@H](Cc2cnc[nH]2)NC(=O)[C@H](C(C)C)NC(=O)[C@@H]2CCCN2C(=O)[C@H](C(C)C)NC(=O)[C@@H](CCCNC(=N)N)NC(=O)[C@H](CC(=O)O)NC(=O)[C@H](Cc2ccccc2)NC(=O)CN(C)C(=O)[C@H](Cc2ccc(-c3ccc(NC(=O)c4ccccc4)cc3)cc2)NC(=O)[C@H](Cc2ccc(-c3ccccc3)cc2)NC(=O)[C@H](CN2CCOCC2)NC(=O)CSC[C@@H](C(=O)NCC(N)=O)NC1=O [Example 491] ({CH2CO}-[Ala(morpholin-4-yl)][Bip][Bip(4'-NHBz)][Sar]FD[dR]VPVHLCG-NH2; thioether N-13) |  | 50 to 200 nM
9 | CC(C)C[C@@H]1NC(=O)[C@H](Cc2cnc[nH]2)NC(=O)[C@H](C(C)C)NC(=O)[C@@H]2CCCN2C(=O)[C@H](C(C)C)NC(=O)[C@@H](CCCNC(=N)N)NC(=O)[C@H](CC(=O)O)NC(=O)[C@H](Cc2ccccc2)NC(=O)CN(C)C(=O)[C@H](Cc2ccc(-c3ccc(NC(=O)c4ccc(OCC(=O)O)cc4)cc3)cc2)NC(=O)[C@H](Cc2ccc(-c3ccccc3)cc2)NC(=O)[C@H](CN2CCOCC2)NC(=O)CSC[C@@H](C(=O)NCC(N)=O)NC1=O [Example 492] ({CH2CO}-[Ala(morpholin-4-yl)][Bip][Bip(4'-NH)](Benzoyl(4-OCH2COOH))[Sar]FD[dR]VPVHLCG-NH2; thioether N-13) | < 50 nM | 
10 | CC(C)C[C@@H]1NC(=O)[C@H](Cc2cnc[nH]2)NC(=O)[C@H](C(C)C)NC(=O)[C@@H]2CCCN2C(=O)[C@H](C(C)C)NC(=O)[C@@H](CCCNC(=N)N)NC(=O)[C@H](CC(=O)O)NC(=O)[C@@H]2CCCN2C(=O)CN(C)C(=O)[C@H](Cc2ccc(-c3ccc(NC(=O)c4ccc(OCC(=O)O)cc4)cc3)cc2)NC(=O)[C@H](Cc2ccc(-c3ccccc3)cc2)NC(=O)[C@H](CC2CCCCC2)NC(=O)CSC[C@@H](C(=O)NCC(N)=O)NC1=O [Example 493] ({CH2CO}-[Cha][Bip][Bip(4'-NH)](Benzoyl(4-OCH2COOH))[Sar]PD[dR]VPVHLCG-NH2; thioether N-13) | 50 to 200 nM | 
11 | CC(C)C[C@@H]1NC(=O)[C@H](Cc2cnc[nH]2)NC(=O)[C@H](C(C)C)NC(=O)[C@@H]2CCCN2C(=O)[C@H](C(C)C)NC(=O)[C@@H](CCCNC(=N)N)NC(=O)[C@H](CC(=O)O)NC(=O)[C@H](Cc2ccccn2)NC(=O)CN(C)C(=O)[C@H](Cc2ccc(-c3ccc(NC(=O)c4ccc(OCC(=O)O)cc4)cc3)cc2)NC(=O)[C@H](Cc2ccc(-c3ccccc3)cc2)NC(=O)[C@H](CN2CCOCC2)NC(=O)CSC[C@@H](C(=O)NCC(N)=O)NC1=O [Example 494] ({CH2CO}-[Ala(morpholin-4-yl)][Bip][Bip(4'-NH)](Benzoyl(4-OCH2COOH))[Sar][2Pal]D[dR]VPVHLCG-NH2; thioether N-13) | < 50 nM | 
12 | CC(C)C[C@@H]1NC(=O)[C@H](Cc2cnc[nH]2)NC(=O)[C@H](C(C)C)NC(=O)[C@@H]2CCCN2C(=O)[C@H](C(C)C)NC(=O)[C@@H](CCCNC(=N)N)NC(=O)[C@H](CC(=O)O)NC(=O)[C@H](Cc2cnc[nH]2)NC(=O)CN(C)C(=O)[C@H](Cc2ccc(-c3ccc(NC(=O)c4ccc(OCC(=O)O)cc4)cc3)cc2)NC(=O)[C@H](Cc2ccc(-c3ccccc3)cc2)NC(=O)[C@H](CN2CCOCC2)NC(=O)CSC[C@@H](C(=O)NCC(N)=O)NC1=O [Example 495] ({CH2CO}-[Ala(morpholin-4-yl)][Bip][Bip(4'-NH)](Benzoyl(4-OCH2COOH))[Sar]HD[dR]VPVHLCG-NH2; thioether N-13) | < 50 nM | 
13 | CC[C@H](C)[C@@H]1NC(=O)[C@@H](CCCNC(=N)N)NC(=O)[C@H](CC(=O)O)NC(=O)[C@H](Cc2cnc[nH]2)NC(=O)CN(C)C(=O)[C@H](Cc2ccc(-c3ccc(NC(=O)c4cccc(CC(=O)O)c4)cc3)cc2)NC(=O)[C@H](Cc2ccc(-c3ccccc3)cc2)NC(=O)[C@H](C(C)(C)C)NC(=O)CSC[C@@H](C(=O)NCC(N)=O)NC(=O)[C@H](CC(C)C)NC(=O)[C@H](Cc2cnc[nH]2)NC(=O)[C@H](C(C)C)NC(=O)[C@@H]2CCCN2C1=O [Example 496] ({CH2CO}-[Tle][Bip][Bip(4'-NHCO-C6H4-3-CH2COOH)][Sar]HD[dR]IPVHLCG-NH2; thioether N-13) | < 50 nM | 
14 | CC[C@H](C)[C@@H]1NC(=O)[C@@H](CCCNC(=N)NCc2cccc(CO)c2)NC(=O)[C@H](CC(=O)O)NC(=O)[C@H](Cc2cnc[nH]2)NC(=O)CN(C)C(=O)[C@H](Cc2ccc(-c3ccc(NC(=O)c4cccc(OCC(=O)O)c4)cc3)cc2)NC(=O)[C@H](Cc2ccc(-c3ccccc3)cc2)NC(=O)[C@H](CC2CCCCC2)NC(=O)CSC[C@@H](C(=O)NCC(N)=O)NC(=O)[C@H](CC(C)C)NC(=O)[C@H](Cc2cnc[nH]2)NC(=O)[C@H](C(C)C)NC(=O)[C@@H]2CCCN2C1=O [Example 498] ({CH2CO}-[Cha][Bip][Bip(4'-NH)](Benzoyl(3-OCH2COOH))[Sar]HD[dArg(ω-Bn(3-CH2OH))]IPVHLCG-NH2; thioether N-13) | 50 to 200 nM | 
15 | CC[C@H](C)[C@@H]1NC(=O)[C@@H](CCCNC(=N)NCc2ccc3occc3c2)NC(=O)[C@H](CC(=O)O)NC(=O)[C@H](Cc2cnc[nH]2)NC(=O)CN(C)C(=O)[C@H](Cc2ccc(-c3ccc(NC(=O)c4cccc(OCC(=O)O)c4)cc3)cc2)NC(=O)[C@H](Cc2ccc(-c3ccccc3)cc2)NC(=O)[C@H](CC2CCCCC2)NC(=O)CSC[C@@H](C(=O)NCC(N)=O)NC(=O)[C@H](CC(C)C)NC(=O)[C@H](Cc2cnc[nH]2)NC(=O)[C@H](C(C)C)NC(=O)[C@@H]2CCCN2C1=O [Example 499] ({CH2CO}-[Cha][Bip][Bip(4'-NH)](Benzoyl(3-OCH2COOH))[Sar]HD[X7]IPVHLCG-NH2; thioether N-13) | < 50 nM | 
